Results: patent US9707234B2, “Spirocyclic hetercycle compounds useful as HIV integrase inhibitors” (MERCK SHARP & DOHME CORP., priority 2013, dated 2017)
Read-outs that look alike come from different tables or passages of the source.

System: HIV-1 (H9IIIB or NL4-3 virus) replication in MT4-GFP cells
Test: microbe, parasite or virus in culture
Assay type: cell-based
Details: inhibition of reproductive ratio R0, 48-72 h post-infection
[1] = MT4-GFP cells infected with HIV-1, 100% normal human serum, read-out: ViKinG IP (nM) with 100% NHS
[2] = MT4-GFP cells infected with HIV-1, serum free conditions (0% NHS), read-out: ViKinG IP (nM) with 0% NHS
[3] = Human immunodeficiency virus 1, NL43, MT4-GFP cells infected with HIV-1, 100% normal human serum, read-out: ViKinG IP (nM) with 100% NHS
[4] = Human immunodeficiency virus 1, NL43, MT4-GFP cells infected with HIV-1, serum free conditions (0% NHS), read-out: ViKinG IP (nM) with 0% NHS
[5] = Human immunodeficiency virus 1, NL43, MT4-GFP cells infected with HIV-1, 10% normal human serum, read-out: ViKinG IP (nM) with 10% NHS

SMILES | IC50 [1] [nM] | IC50 [3] [nM] | IC50 [4] [nM] | also measured
CCN1C(=O)c2c(O)c(=O)c(-c3nnc(Cc4ccc(F)cc4F)s3)cn2N(C)C12CCOC2 (single isomer, unassigned) [Compound 36] | 368 | – | – | IC50 [2]: 3.8 nM
CCOCCN1C(=O)c2c(O)c(=O)c(C(=O)NCc3cccc(Cl)c3F)cn2CC12CCOC2 (single isomer, unassigned) [Compound 80] | 217 | – | – | IC50 [2]: 1.7 nM
CCOCCN1C(=O)c2c(O)c(=O)c(C(=O)NCc3ccc(F)cc3F)cn2CC12CCOC2 (single isomer, unassigned) [Compound 77] | – | 96 | 3 | –
CN1C(=O)c2c(O)c(=O)c(C(=O)NCc3ccccc3F)cn2N(C)C12CCOC2 (single isomer, unassigned) [Compound 111] | – | 158 | 1.6 | –
CN1C(=O)c2c(O)c(=O)c(C(=O)NCc3ccc(F)cc3F)cn2N(CCCC(F)(F)F)C12CCOC2 (single isomer, unassigned) [Compound 164] | – | 178 | – | –
COCCN1C(=O)c2c(O)c(=O)c(C(=O)NCc3ccc(F)cc3F)cn2CC12CCOC2 (single isomer, unassigned) [Compound 49] | – | 123 | 2.9 | –
COCCCN1C(=O)c2c(O)c(=O)c(C(=O)NCc3ccc(F)cc3F)cn2CC12CCCOC2 (single isomer, unassigned) [Compound 85] | 78 | – | 5.4 | –
COCCCN1C(=O)c2c(O)c(=O)c(C(=O)NCc3ccc(F)cc3F)cn2CC12CCOCC2 [Compound 43] | – | 39 | 3 | –
CCOC(=O)N1CCC2(C1)N(CC)C(=O)c1c(O)c(=O)c(C(=O)NCc3ccc(F)cc3F)cn1N2C (single isomer, unassigned) [Compound 140] | 48 | – | – | IC50 [2]: 1.7 nM
CCCN1C(=O)c2c(O)c(=O)c(C(=O)NCc3ccc(F)cc3F)cn2CC12CCOC2 (racemic) [Compound 67] | – | 3600 | 6.6 | –
COCN1n2cc(C(=O)NCc3ccc(F)cc3F)c(=O)c(O)c2C(=O)N(C)C12CCOC2 (single isomer, unassigned) [Compound 153] | 275 | – | 1.3 | –
CCN1C(=O)c2c(O)c(=O)c(-c3nnc(Cc4ccc(F)cc4F)s3)cn2N(C)C12CCN(C(=O)OC(C)C)CC2 [Compound 9] | – | 344 | 89.7 | –
CN1C(=O)c2c(O)c(=O)c(C(=O)NCc3c(F)cccc3F)cn2N(C)C12CCOC2 (single isomer, unassigned) [Compound 116] | 42 | – | – | IC50 [2]: 0.7 nM
CCN1n2cc(C(=O)NCc3ccc(F)cc3F)c(=O)c(O)c2C(=O)N(C)C12CCOC2 (single isomer, unassigned) [Compound 149] | 144 | – | 0.7 | –
CN1C(=O)c2c(O)c(=O)c(C(=O)NCc3ccc(F)cc3F)cn2N(C)C12CCNC2 (single isomer, unassigned) [Compound 169] | 512 | – | 4.4 | –
CN1C(=O)c2c(O)c(=O)c(-c3nnc(Cc4ccc(F)cc4F)s3)cn2N(C)C12CCCNCC2 (centres unmarked) [Compound 34] | – | – | 9.7 | IC50 [5]: 34 nM
CN1C(=O)c2c(O)c(=O)c(C(=O)NCc3ccc(F)cc3F)cn2N(C)C12CCNC2 (single isomer, unassigned) [Compound 170] | 66 | – | – | IC50 [2]: 5 nM
CN1C(=O)c2c(O)c(=O)c(C(=O)NCc3ccc(F)cc3F)cn2CC12CCNCC2 [Compound 88] | – | 97 | 10.3 | –
CN1C(=O)c2c(O)c(=O)c(C(=O)NCc3ccc(F)c(Cl)c3)cn2CC12CCOC2 (single isomer, unassigned) [Compound 61] | – | 119 | 2.4 | –
CCCCCN1C(=O)c2c(O)c(=O)c(C(=O)NCc3ccc(F)cc3F)cn2CC12CCOCC2 [Compound 45] | – | 236 | 6.4 | –
CN1C(=O)c2c(O)c(=O)c(C(=O)NCc3ccc(F)cc3F)cn2CC12CCOC2 (single isomer, unassigned) [Compound 57] | – | 36 | 1.6 | –
CCN1C(=O)c2c(O)c(=O)c(-c3nnc(Cc4ccc(F)cc4F)s3)cn2N(C)C12CCN(S(=O)(=O)N(C)C)CC2 [Compound 13] | – | 106 | 8.6 | IC50 [5]: 14 nM
CN1C(=O)c2c(O)c(=O)c(-c3nnc(Cc4ccc(F)cc4F)s3)cn2N(C)C12CCN(S(C)(=O)=O)CC2 [Compound 26] | – | 161 | 11.5 | IC50 [5]: 26 nM
CCN1C(=O)c2c(O)c(=O)c(-c3nnc(Cc4ccc(F)cc4F)s3)cn2N(C)C12CCOC2 (single isomer, unassigned) [Compound 35] | 133 | – | – | IC50 [2]: 1.7 nM
CC1OCCC12N(C)C(=O)c1c(O)c(=O)c(C(=O)NCc3ccc(F)cc3F)cn1N2C (single isomer, unassigned) [Compound 132] | 77 | – | – | –

SMILES | IC50 [1] [nM] | IC50 [3] [nM] | IC50 [4] [nM] | also measured
CN1C(=O)c2c(O)c(=O)c(C(=O)NCc3ccc(F)cc3)cn2N(C)C12CCOC2 (single isomer, unassigned) [Compound 114] | 87 | – | – | IC50 [2]: 0.8 nM
CN1C(=O)c2c(O)c(=O)c(-c3cnn(Cc4ccc(F)cc4F)c3)cn2CC12CCOC2 (centres unmarked) [Compound 90] | – | 123 | 34.1 | –
CN1C(=O)c2c(O)c(=O)c(-c3nnc(Cc4ccc(F)cc4F)s3)cn2CC12CCNCC2 [Compound 93] | – | – | 73.9 | IC50 [5]: 114 nM
CN1C(=O)c2c(O)c(=O)c(C(=O)NCc3ccc(F)c(Cl)c3)cn2N(C)C12CCOC2 (single isomer, unassigned) [Compound 107] | 790 | – | 1.2 | –
CC1OCCC12N(C)C(=O)c1c(O)c(=O)c(C(=O)NCc3ccc(F)cc3F)cn1N2C (single isomer, unassigned) [Compound 133] | 55 | – | – | –
CN1C(=O)c2c(O)c(=O)c(-c3nnc(Cc4ccc(F)cc4F)s3)cn2N(C)C12CCS(=O)(=O)CC2 [Compound 27] | – | 712 | 21.2 | IC50 [5]: 72 nM
CN1C(=O)c2c(O)c(=O)c(C(=O)NCc3ccccc3F)cn2N(C)C12CCOC2 (single isomer, unassigned) [Compound 112] | 231 | – | – | IC50 [2]: 0.9 nM
COCCN1C(=O)c2c(O)c(=O)c(C(=O)NCc3ccc(F)c(F)c3F)cn2CC12CCOC2 (single isomer, unassigned) [Compound 71] | – | 350 | 3.7 | –
CCN1C(=O)c2c(O)c(=O)c(-c3nnc(Cc4ccc(F)cc4F)s3)cn2N(C)C12CCNCC2 [Compound 32] | – | 74 | 8 | –
CN1C(=O)c2c(O)c(=O)c(-c3nnc(Cc4ccc(F)cc4)s3)cn2N(C)C12CCOC2 (centres unmarked) [Compound 38] | – | 132 | 3.8 | –
CN1C(=O)c2c(O)c(=O)c(-c3nnc(Cc4ccc(F)cc4F)s3)cn2N(C)C12CCSCC2 [Compound 25] | – | 257 | 5.3 | IC50 [5]: 17 nM
CCN1n2cc(C(=O)NCc3ccc(F)cc3F)c(=O)c(O)c2C(=O)N(C)C12CCOC2 (single isomer, unassigned) [Compound 150] | 71 | – | – | IC50 [2]: 0.6 nM
CCOC(=O)N1CCC2(CC1)Cn1cc(-c3nnc(Cc4ccc(F)cc4F)s3)c(=O)c(O)c1C(=O)N2C [Compound 94] | – | 116 | 10.6 | –
COCCCN1C(=O)c2c(O)c(=O)c(C(=O)NCc3ccc(F)cc3F)cn2CC12CCOC2 (single isomer, unassigned) [Compound 74] | 28 | – | – | IC50 [2]: 3.3 nM
O=C1NC2(CCOCC2)Cn2cc(-c3nnc(Cc4ccc(F)cc4F)s3)c(=O)c(O)c21 [Compound 98] | – | 2030 | 91.6 | –
CN1C(=O)c2c(O)c(=O)c(C(=O)NCc3ccc(F)cc3F)cn2N(C)C12COC2 [Compound 143] | – | 78 | 1.4 | IC50 [5]: 7 nM
CN1C(=O)c2c(O)c(=O)c(C(=O)NCc3ccc(F)cc3F)cn2CC12CCOCC2 [Compound 39] | – | 49 | 4.2 | –
COCN1n2cc(C(=O)NCc3ccc(F)cc3F)c(=O)c(O)c2C(=O)N(C)C12CCOC2 (single isomer, unassigned) [Compound 154] | 37 | – | – | IC50 [2]: 0.7 nM
CCN1C(=O)c2c(O)c(=O)c(-c3nnc(Cc4ccc(F)cc4F)s3)cn2N(C)C12CCN(c1ncccn1)CC2 [Compound 17] | – | 1520 | 29.3 | –
COCCN1C(=O)c2c(O)c(=O)c(C(=O)NCc3ccc(F)c(Cl)c3F)cn2CC12CCOC2 (single isomer, unassigned) [Compound 54] | – | 989 | 2.3 | –
CN1C(=O)c2c(O)c(=O)c(C(=O)NCc3ccc(F)cc3F)cn2N(C)C12CCOC2 (centres unmarked) [Compound 104] | 87 | – | – | IC50 (MT4-GFP cells infected with HIV-1, 10% normal human serum, read-out: ViKinG IP (nM) with 10% NHS): 4 nM; IC50 [2]: 0.8 nM
CN1C(=O)c2c(O)c(=O)c(C(=O)NCc3cccc(Cl)c3F)cn2N(C)C12CCOC2 (single isomer, unassigned) [Compound 109] | – | 229 | 0.6 | –
CCCN1C(=O)c2c(O)c(=O)c(C(=O)NCc3ccc(F)cc3F)cn2CC12CCOCC2 [Compound 41] | – | 7800 | 11.2 | –
CCOC(=O)N1CCC2(CC1)N(CC)C(=O)c1c(O)c(=O)c(-c3cnn(Cc4ccc(F)cc4F)c3)c(CO)n1N2C [Compound 92] | – | 3650 | 159 | –
CCN1C(=O)c2c(O)c(=O)c(C(=O)NCc3ccc(F)cc3F)cn2N(C)C12COC2 [Compound 144] | – | 591 | 1.5 | IC50 [5]: 60 nM
